{"source": "PubChem BioAssay AID1949", "about": "(Southern Research Institute, 2009)", "note": "Inconclusive results are not listed. The source made the active and inactive calls. The rule behind the calls is not given here."}
{"system": "M. tuberculosis H37Rv growth inhibition", "experiment": "Mycobacterium tuberculosis H37Rv growth inhibition, cell based, confirmatory dose response (AID 1949);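 note: bacteria grown 7 days with compound before Alamar blue readout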"}
{"smiles": "CC(C(=O)Oc1cccc2cccnc12)N1C(=O)C2C3C=CC(C4CC34)C2C1=O", "note": "(stereo not drawn)", "IC50": "3.16 µg/mL"}
{"smiles": "O=C(Oc1cccc2cccnc12)C(Cc1ccccc1)N1C(=O)C2C3CCC(C3)C2C1=O", "note": "(stereo not drawn)", "IC50": "2.76 µg/mL"}
{"smiles": "O=C(CSc1n[nH]c(-c2ccc(Cl)cc2)n1)Nc1ccc(F)c(Cl)c1", "IC50": "39 µg/mL"}
{"smiles": "CCOC(=O)COc1ccc2c(=O)c(Oc3cnn(-c4ccccc4)c3)c(C)oc2c1", "IC50": "0.61 µg/mL"}
{"smiles": "O=C(NCc1cccs1)c1cc2n(n1)C(C(F)(F)F)CC(c1ccc3c(c1)OCO3)N2", "note": "(stereo not drawn)", "IC50": "1.5 µg/mL"}
{"smiles": "COc1cccc(NC(=O)CSc2nnc(-c3ccc(Br)cc3)o2)c1", "IC50": "3.12 µg/mL"}
{"smiles": "Cc1ccc(CN2C(=O)C(=O)c3cc(Br)ccc32)c(C)c1", "IC50": "8.44 µg/mL"}
{"smiles": "COc1cc(C(=O)Oc2ccc(Cl)c3cccnc23)cc(OC)c1OC", "IC50": "11.3 µg/mL"}
{"smiles": "CCn1c2ccccc2c2cc(NC(=O)C34CCC(C)(C(=O)C3)C4(C)C)ccc21", "note": "(stereo not drawn)", "IC50": "11.5 µg/mL"}
{"smiles": "CC(Sc1nnc(N)s1)C(=O)Nc1nc2c(s1)CCCC2", "note": "(stereo not drawn)", "IC50": "0.75 µg/mL"}
{"smiles": "COc1cc2c(cc1NC(=O)Nc1ccc(Cl)cc1)oc1ccccc12", "IC50": "1.33 µg/mL"}
{"smiles": "Cc1cc(=O)oc2cc(OCC(=O)OC3CCCCC3)ccc12", "IC50": "1.47 µg/mL"}
{"smiles": "CCOC(=O)c1ccc(NC(=S)NC(=O)CCc2ccccc2)cc1", "IC50": "1.76 µg/mL"}
{"smiles": "COc1ccc(Cl)cc1CN1CCN(c2ncnc3scc(-c4ccccc4)c23)CC1", "IC50": "4.15 µg/mL"}
{"smiles": "O=C(Nc1ccc(Nc2ccccc2)cc1)C(Cl)Cl", "IC50": "6.79 µg/mL"}
{"smiles": "Cc1ccc(NCCC(=O)c2ccc([N+](=O)[O-])cc2)cc1Cl", "IC50": "19.6 µg/mL"}
{"smiles": "OC(CN1CCCCCC1)CN1c2ccccc2Sc2ccccc21", "note": "(stereo not drawn)", "IC50": "9.1 µg/mL"}
{"smiles": "CCOC(=O)c1c(NC(=O)c2c(F)c(F)c(F)c(F)c2F)sc(C(N)=O)c1C", "IC50": "< 0.1 µg/mL"}
{"smiles": "Cc1ccc(SCC(=O)Nc2ccc(C)c(C)c2)cc1", "IC50": "3.4 µg/mL"}
{"smiles": "Cc1ccc(Cn2c(=N)n(CC(O)c3ccc(Cl)c(Cl)c3)c3ccccc32)cc1", "note": "(stereo not drawn)", "IC50": "2.89 µg/mL"}
{"smiles": "CS(=O)(=O)c1ncc(Cl)c(C(=O)Nc2cc(C(F)(F)F)ccc2Cl)n1", "IC50": "17.1 µg/mL"}
{"smiles": "CC(C)OC(=O)c1c2c(n3ccccc13)C(=O)c1ccccc1C2=O", "IC50": "11.4 µg/mL"}
{"smiles": "C=CCn1c(-c2cccs2)nc2ccccc21", "IC50": "1.86 µg/mL"}
{"smiles": "NC(N)=Nc1nc(-c2ccccc2)c2cc(F)ccc2n1", "IC50": "7.61 µg/mL"}
{"smiles": "COC(=O)C1=C(C)NC2=C(C(=O)CC(c3ccccc3)C2)C1c1ccccc1Br", "note": "(stereo not drawn)", "IC50": "7.5 µg/mL"}
{"smiles": "CCn1nnc(NC(=O)COc2ccc(C3CCCCC3)cc2)n1", "IC50": "2.04 µg/mL"}
{"smiles": "COC(=O)CSc1nnc(SCc2ccc(OC)cc2)s1", "IC50": "2.28 µg/mL"}
{"smiles": "COc1ccccc1C1=Nc2cccc3cccc(c23)N1", "IC50": "0.24 µg/mL"}
{"smiles": "Cn1nc([N+](=O)[O-])nc1Oc1ccc(C(C)(C)C)cc1", "IC50": "< 0.1 µg/mL"}
{"smiles": "COc1cc(CNCc2cccnc2)ccc1OCc1ccc(Cl)cc1Cl", "IC50": "8.24 µg/mL"}
{"smiles": "Cc1sc(NC(=O)c2cc3ccccc3oc2=O)c(C(=O)OC(C)C)c1C", "IC50": "0.66 µg/mL"}
{"smiles": "O=C(c1ccccc1)c1ccc2nc(-c3cccc(NC(=O)C4CC4)c3)[nH]c2c1", "IC50": "7.78 µg/mL"}
{"smiles": "COc1cc(/C=C/c2ccc3cccc(O)c3n2)ccc1O", "IC50": "0.27 µg/mL"}
{"smiles": "COc1cc(/C=C/c2ccc3cccc(O)c3n2)cc([N+](=O)[O-])c1O", "IC50": "0.41 µg/mL"}
{"smiles": "COc1ccc(N/C(N)=N/c2nc(-c3cccs3)cc(C(F)(F)F)n2)cc1", "IC50": "> 50 µg/mL (inactive)"}
{"smiles": "O=C(CCNc1ccc(F)cc1)c1ccco1", "IC50": "5.39 µg/mL"}
{"smiles": "Cc1c(Cl)ccc(OCCCN2CCCC(C)C2)c1C", "note": "(stereo not drawn)", "IC50": "3.16 µg/mL"}
{"smiles": "O=[N+]([O-])c1nn(-c2ccccc2)[n+]([O-])c1N1CCCC1", "IC50": "11.9 µg/mL"}
{"smiles": "C=CCc1cc(/C=C/[N+](=O)[O-])cc(OCC)c1O", "IC50": "5.69 µg/mL"}
{"smiles": "Cc1nc2c(-c3ccc(Cl)cc3)cnn2c(N)c1-c1ccccc1", "IC50": "0.84 µg/mL"}
{"smiles": "Cc1ccc(C(=O)Nc2nc(-c3ccccc3)c(-c3ccccc3)o2)cc1", "IC50": "< 0.1 µg/mL"}
{"smiles": "NC(=O)CSc1nnc(SCc2cccc3ccccc23)s1", "IC50": "15.1 µg/mL"}
{"smiles": "COc1ccc(-c2ccc(C#N)c(SCC(=O)OCc3ccccc3)n2)cc1", "IC50": "14.3 µg/mL"}
{"smiles": "CC(C)(C)c1ccc(C(=O)Nc2cccc(NC(=O)c3cccs3)c2)cc1", "IC50": "2.28 µg/mL"}
{"smiles": "Cc1oc2ccc(OCC(=O)OCc3ccccc3)cc2c1C(=O)OC(C)C", "IC50": "9.08 µg/mL"}
{"smiles": "CCn1c(NC(=S)Nc2ccccc2)nc2ccccc21", "IC50": "> 50 µg/mL (inactive)"}
{"smiles": "O=C(CC1Sc2ccc(Cl)cc2NC1=O)Nc1ccc([N+](=O)[O-])cc1", "note": "(stereo not drawn)", "IC50": "2.53 µg/mL"}
{"smiles": "Cc1ccc2nc(N/N=C\\c3ccc([N+](=O)[O-])o3)nc(-c3ccccc3)c2c1", "IC50": "3.63 µg/mL"}
{"smiles": "Clc1ccc(COc2ccc3ccccc3c2CNCc2cccnc2)c(Cl)c1", "IC50": "2.7 µg/mL"}
{"smiles": "CCN1C(=O)c2cccc3cc([N+](=O)[O-])cc(c23)C1=O", "IC50": "< 0.1 µg/mL"}
{"smiles": "c1ccc(CCNc2nc(-c3ccccn3)cs2)cc1", "IC50": "0.4 µg/mL"}
{"smiles": "N#Cc1c(SCCN2CCCC2)nc2c(c1C(F)(F)F)CC(c1ccccc1)CC2", "note": "(stereo not drawn)", "IC50": "47.4 µg/mL"}
{"smiles": "CCn1c(Sc2ncnc3ccccc23)nc2ccccc21", "IC50": "2.77 µg/mL"}
{"smiles": "O=Cc1ccc(Sc2nnc(-c3ccccc3)o2)o1", "IC50": "3.39 µg/mL"}
{"smiles": "O=C(Nc1cccc(C(F)(F)F)c1)C1CCN(C(=O)c2ccc(-c3ccccc3)cc2)CC1", "IC50": "5.84 µg/mL"}
{"smiles": "CCSCC(=O)N1CCN(c2nnc(-c3ccccc3)c3ccccc23)CC1", "IC50": "14.5 µg/mL"}
{"smiles": "COc1c(C)cccc1C(=O)Nc1ccc(N2CCCC2)cc1", "IC50": "4.85 µg/mL"}
{"smiles": "Cc1ccccc1NC(=O)c1cc(Cl)ccc1O", "IC50": "2.6 µg/mL"}
{"smiles": "O=C(Nc1ccc(-c2nc3ccccc3c(=O)o2)cc1)c1ccccc1I", "IC50": "0.37 µg/mL"}
{"smiles": "O=C(Nc1cccc(C(F)(F)F)c1)c1ccc(Cn2cc(Cl)cn2)cc1", "IC50": "5.67 µg/mL"}
{"smiles": "OC(COc1ccc2ccccc2c1Br)Cn1ccnc1", "note": "(stereo not drawn)", "IC50": "5.39 µg/mL"}
{"smiles": "COc1cccc(N2CCN(Cc3nc(N)nc(Nc4ccc(C)c(C)c4)n3)CC2)c1", "IC50": "2.82 µg/mL"}
{"smiles": "O=C(Nc1ccc(C(F)(F)F)cc1)Nc1cccc(Cl)c1", "IC50": "0.2 µg/mL"}
{"smiles": "Cc1cc(Nc2ccc(N(C)C)cc2)c2cccc(C)c2n1", "IC50": "4.43 µg/mL"}
{"smiles": "CC(C)(C)c1ccc(C(=O)Nc2nc3ccccc3[nH]2)cc1", "IC50": "< 0.1 µg/mL"}
{"smiles": "Cc1cc(C)cc(NC(=O)COc2cccc(C=O)c2)c1", "IC50": "3.3 µg/mL"}
{"smiles": "CC(=O)Oc1cccc2ccc(/C=C/c3cccs3)nc12", "IC50": "1.14 µg/mL"}
{"smiles": "O=C(Nc1ccc2ccccc2c1)Nc1ccc2snnc2c1", "IC50": "0.9 µg/mL"}
{"smiles": "CC(C)COc1ccc(-c2nn(-c3ccccc3)cc2C(=O)Nc2nccs2)cc1", "IC50": "0.19 µg/mL"}
{"smiles": "O=C1C=C(c2ccccc2)C(=O)c2ccccc21", "IC50": "2.68 µg/mL"}
{"smiles": "CC(C)(C)c1ccc(C(=O)Nc2ccc(NC(=S)NC(=O)c3cccs3)cc2)cc1", "IC50": "0.46 µg/mL"}
{"smiles": "C/C(Cl)=C/Cc1c(C)[nH]c2ccccc2c1=O", "IC50": "16.6 µg/mL"}
{"smiles": "Cc1ccnc(NC(=O)COc2ccc([N+](=O)[O-])cc2)c1", "IC50": "0.43 µg/mL"}
{"smiles": "COc1ccc(C(=O)c2ccc(N3CCN(C)CC3)c([N+](=O)[O-])c2)c2ccccc12", "IC50": "5.57 µg/mL"}
{"smiles": "Cc1cc2ncn(CCOc3ccc(Cl)cc3)c2cc1C", "IC50": "1.12 µg/mL"}
{"smiles": "O=C(CC(O)(C(F)(F)F)C(F)(F)F)Nc1ccc(Cl)c(Cl)c1", "IC50": "1.51 µg/mL"}
{"smiles": "CC1CCN(c2nnnc3c2sc2nc(N4CCOCC4)c4c(c23)CCCC4)CC1", "IC50": "> 50 µg/mL (inactive)"}
{"smiles": "COC(=O)c1ccc(NC(=O)CSc2nnc(Cc3ccc(OC)cc3)o2)cc1", "IC50": "11.1 µg/mL"}
{"smiles": "N#C/C(=C/c1ccc(N2CCCCC2)o1)c1cccc(F)c1", "IC50": "5.98 µg/mL"}
{"smiles": "N#CC1=C(SCC(=O)Nc2ccccc2C(=O)c2ccccc2)NC(=O)CC1c1ccccc1F", "note": "(stereo not drawn)", "IC50": "3.1 µg/mL"}
{"smiles": "CCCN1C(=O)c2cccc3cc([N+](=O)[O-])cc(c23)C1=O", "IC50": "< 0.1 µg/mL"}
{"smiles": "O=[N+]([O-])c1ccccc1C1Nc2ccc(Cl)cc2C2C=CCC21", "note": "(stereo not drawn)", "IC50": "10.5 µg/mL"}
{"smiles": "O=C(Oc1ccccc1)c1ccc(COC(=O)c2cc3ccccc3oc2=O)cc1", "IC50": "> 50 µg/mL (inactive)"}
